# Test results published in patent US20240269139A1, “COMPOUNDS FOR TARGETED PROTEIN DEGRADATION OF KINASES” (DANA-FARBER CANCER INSTITUTE, INC., priority 2020, published 2024).
# Where two headings read alike, the source gives them in different places.
# Key:
# Assay type in all cases: cell-based
# [1] = target: T1, protein kinases (human kinome) (Homo sapiens, UniProt O14965)
# T1 sequence (O14965 1-403): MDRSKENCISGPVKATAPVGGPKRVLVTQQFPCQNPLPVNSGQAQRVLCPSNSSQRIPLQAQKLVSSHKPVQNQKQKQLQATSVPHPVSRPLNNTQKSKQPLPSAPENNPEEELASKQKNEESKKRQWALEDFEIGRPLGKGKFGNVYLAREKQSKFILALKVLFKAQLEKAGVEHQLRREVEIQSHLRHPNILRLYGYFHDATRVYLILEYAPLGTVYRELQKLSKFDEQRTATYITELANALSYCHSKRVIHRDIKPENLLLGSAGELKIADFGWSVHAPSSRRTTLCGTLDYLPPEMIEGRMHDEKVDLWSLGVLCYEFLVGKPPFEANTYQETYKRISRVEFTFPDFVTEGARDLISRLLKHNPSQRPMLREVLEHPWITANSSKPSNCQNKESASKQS
# [2] = target: protein kinases (human kinome) (Homo sapiens, UniProt P11802)
# [3] = target: protein kinases (human kinome) (Homo sapiens, UniProt P30291); settings: for logFC of WEE1: WEE1 P30291-1
# [4] = target: protein kinases (human kinome) (Homo sapiens, UniProt Q00534); settings: for logFC CDK6: CDK6 (Q00534), direction down; for logFC of CDK6 (Q00534): down
# [5] = target: protein kinases (human kinome) (Homo sapiens, UniProt Q2M2I8)
# [6] = target: protein kinases (human kinome) (Homo sapiens, UniProt Q9H0K1); settings: for logFC of SIK2: Accession Q9H0K1; for logFC SIK2 (Q9H0K1): direction of change down; for logFC SIK2: SIK2 (Q9H0K1), down
# [7] = experiment wp076, degrader vs DMSO
# [8] = AAK1 (Q2M218-1), experiment wp146, down
# [9] = AAK1, accession Q2M218-1, experiment wp146, direction of change down
# [10] = AAK1 (Q2M218-1), experiment wp195, down
# [11] = AAK1, accession Q2M218-1, experiment wp195, direction of change down
# protein kinases (human kinome) (Homo sapiens, UniProt Q9H0K1), sequence (Q9H0K1 whole entry): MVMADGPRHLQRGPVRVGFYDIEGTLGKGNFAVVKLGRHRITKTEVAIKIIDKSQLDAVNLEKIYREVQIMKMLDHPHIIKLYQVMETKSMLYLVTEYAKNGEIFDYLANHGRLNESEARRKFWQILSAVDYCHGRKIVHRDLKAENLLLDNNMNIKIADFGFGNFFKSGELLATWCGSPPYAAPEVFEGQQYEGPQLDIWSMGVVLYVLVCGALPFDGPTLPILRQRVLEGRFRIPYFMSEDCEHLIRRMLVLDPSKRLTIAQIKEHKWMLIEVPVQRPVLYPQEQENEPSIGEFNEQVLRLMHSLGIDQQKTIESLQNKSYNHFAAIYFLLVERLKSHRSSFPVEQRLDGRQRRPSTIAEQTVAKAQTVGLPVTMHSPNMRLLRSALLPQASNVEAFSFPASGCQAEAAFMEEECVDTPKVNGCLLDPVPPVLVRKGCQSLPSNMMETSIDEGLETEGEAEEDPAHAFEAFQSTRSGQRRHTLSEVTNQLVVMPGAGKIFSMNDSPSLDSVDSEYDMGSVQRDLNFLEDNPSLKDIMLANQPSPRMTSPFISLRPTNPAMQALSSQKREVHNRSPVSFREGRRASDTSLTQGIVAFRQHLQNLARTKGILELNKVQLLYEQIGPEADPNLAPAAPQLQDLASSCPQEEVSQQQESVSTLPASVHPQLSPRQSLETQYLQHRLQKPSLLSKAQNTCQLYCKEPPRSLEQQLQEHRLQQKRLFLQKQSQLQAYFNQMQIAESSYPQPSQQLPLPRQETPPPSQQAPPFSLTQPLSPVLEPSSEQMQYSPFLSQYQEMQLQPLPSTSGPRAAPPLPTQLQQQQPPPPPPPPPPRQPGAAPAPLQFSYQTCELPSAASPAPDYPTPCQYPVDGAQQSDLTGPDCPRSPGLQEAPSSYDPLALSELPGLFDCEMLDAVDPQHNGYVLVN
# protein kinases (human kinome) (Homo sapiens, UniProt P11802), sequence (P11802 whole entry): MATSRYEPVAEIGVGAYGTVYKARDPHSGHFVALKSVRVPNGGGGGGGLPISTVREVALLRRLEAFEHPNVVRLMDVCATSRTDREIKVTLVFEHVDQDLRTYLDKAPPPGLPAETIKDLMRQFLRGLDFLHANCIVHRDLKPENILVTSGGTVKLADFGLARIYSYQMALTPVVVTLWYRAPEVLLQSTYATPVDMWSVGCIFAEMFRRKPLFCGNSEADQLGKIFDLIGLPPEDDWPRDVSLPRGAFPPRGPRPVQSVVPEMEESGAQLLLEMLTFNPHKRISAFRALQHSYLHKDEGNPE
# protein kinases (human kinome) (Homo sapiens, UniProt Q2M2I8), sequence (Q2M2I8 whole entry): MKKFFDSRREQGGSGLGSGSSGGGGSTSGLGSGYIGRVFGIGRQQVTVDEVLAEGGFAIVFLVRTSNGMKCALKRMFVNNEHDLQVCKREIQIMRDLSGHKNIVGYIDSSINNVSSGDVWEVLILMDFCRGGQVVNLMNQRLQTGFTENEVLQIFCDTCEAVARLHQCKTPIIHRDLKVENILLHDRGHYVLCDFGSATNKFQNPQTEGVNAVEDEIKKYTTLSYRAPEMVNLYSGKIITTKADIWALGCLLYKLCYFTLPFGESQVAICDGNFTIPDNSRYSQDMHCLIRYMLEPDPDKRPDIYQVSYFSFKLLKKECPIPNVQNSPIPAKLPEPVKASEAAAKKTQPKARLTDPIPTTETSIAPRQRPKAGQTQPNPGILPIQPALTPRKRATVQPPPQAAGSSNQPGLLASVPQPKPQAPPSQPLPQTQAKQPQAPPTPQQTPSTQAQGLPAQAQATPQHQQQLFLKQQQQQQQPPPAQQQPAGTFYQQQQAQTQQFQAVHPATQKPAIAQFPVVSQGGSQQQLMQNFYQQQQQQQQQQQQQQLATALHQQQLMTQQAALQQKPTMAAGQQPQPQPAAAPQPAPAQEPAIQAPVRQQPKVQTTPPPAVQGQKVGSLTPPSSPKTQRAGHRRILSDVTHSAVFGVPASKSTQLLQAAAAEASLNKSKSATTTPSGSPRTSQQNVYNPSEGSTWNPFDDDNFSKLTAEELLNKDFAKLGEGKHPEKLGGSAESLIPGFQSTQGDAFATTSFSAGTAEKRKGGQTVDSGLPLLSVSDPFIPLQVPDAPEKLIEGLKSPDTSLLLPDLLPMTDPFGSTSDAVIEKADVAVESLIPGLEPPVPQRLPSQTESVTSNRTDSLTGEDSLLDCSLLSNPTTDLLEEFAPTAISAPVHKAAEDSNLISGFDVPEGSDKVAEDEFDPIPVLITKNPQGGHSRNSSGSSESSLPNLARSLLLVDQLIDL
# protein kinases (human kinome) (Homo sapiens, UniProt Q00534), sequence (Q00534 whole entry): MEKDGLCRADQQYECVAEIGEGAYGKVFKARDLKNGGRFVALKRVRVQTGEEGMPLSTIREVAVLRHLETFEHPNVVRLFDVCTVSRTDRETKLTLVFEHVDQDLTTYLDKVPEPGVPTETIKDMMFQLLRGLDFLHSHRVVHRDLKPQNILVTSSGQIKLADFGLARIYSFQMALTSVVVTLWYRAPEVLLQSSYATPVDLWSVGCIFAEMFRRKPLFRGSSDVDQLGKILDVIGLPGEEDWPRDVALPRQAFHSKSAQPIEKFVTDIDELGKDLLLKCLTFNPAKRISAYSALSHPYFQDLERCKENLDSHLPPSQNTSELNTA
# protein kinases (human kinome) (Homo sapiens, UniProt P30291), sequence (P30291 whole entry): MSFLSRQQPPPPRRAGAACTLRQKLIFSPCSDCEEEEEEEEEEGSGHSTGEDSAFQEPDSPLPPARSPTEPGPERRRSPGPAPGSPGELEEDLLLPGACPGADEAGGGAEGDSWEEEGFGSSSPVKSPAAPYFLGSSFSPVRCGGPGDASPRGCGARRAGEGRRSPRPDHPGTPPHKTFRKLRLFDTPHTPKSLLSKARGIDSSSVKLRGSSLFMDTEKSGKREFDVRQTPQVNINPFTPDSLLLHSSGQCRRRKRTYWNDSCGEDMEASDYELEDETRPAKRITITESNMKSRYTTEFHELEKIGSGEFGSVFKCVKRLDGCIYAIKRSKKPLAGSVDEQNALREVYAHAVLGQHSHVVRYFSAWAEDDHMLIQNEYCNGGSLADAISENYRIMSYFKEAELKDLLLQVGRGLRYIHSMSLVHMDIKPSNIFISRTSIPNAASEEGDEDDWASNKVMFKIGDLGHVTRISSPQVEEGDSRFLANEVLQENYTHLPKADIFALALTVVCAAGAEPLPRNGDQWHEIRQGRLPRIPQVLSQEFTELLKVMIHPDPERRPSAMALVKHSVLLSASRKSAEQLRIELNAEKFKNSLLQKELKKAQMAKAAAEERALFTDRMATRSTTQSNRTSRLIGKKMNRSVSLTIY
smiles,measurement,setting,value
CC(C)S(=O)(=O)c1ccccc1Nc1nc(Nc2ccc(N3CCN(CCOCCOCCC(=O)NCCNc4cccc5c4CN(C4CCC(=O)NC4=O)C5=O)CC3)cc2)ncc1Cl (centres unmarked) [TL13.97],logFC AURKA (O14965),[1]; experiment wp014,−0.3268
same,logFC AURKA (O14965),[1]; experiment wp137,−1.612
same,logFC CDK4 (P11802),[2]; experiment wp137,−0.9676
same,logFC of WEE1,[3]; experiment wp137,−1.585
same,logFC WEE1 (P30291-1),[3]; experiment wp137,−1.585
same,logFC CDK6,[4]; experiment wp137,−0.5967
same,logFC of CDK6 (Q00534),[4]; Experiment wp137,−0.5967
same,logFC AAK1,"[5]; AAK1 (Q2M218-1), experiment wp137, down",−2.479
same,logFC AAK1,"[5]; AAK1, accession Q2M218-1, experiment wp137, direction of change down",−2.479
CS(=O)(=O)Nc1cccc(-c2csc3cnc(Nc4ccc(N5CCN(CCOCCOCCOc6cccc7c6C(=O)N(C6CCC(=O)NC6=O)C7=O)CC5)cc4)nc23)c1 (centres unmarked) [RSS0628],logFC AURKA (O14965),[1]; experiment wp045,−1.13
same,logFC CDK4 (P11802),[2]; experiment wp045,−1.422
same,logFC WEE1 (P30291-1),[3]; experiment wp045,−1.578
same,logFC CDK6,[4]; experiment wp045,−1.743
same,logFC of CDK6 (Q00534),[4]; Experiment wp045,−1.743
same,logFC AAK1,"[5]; AAK1 (Q2M218-1), experiment wp045, down",−1.24
same,logFC AAK1,"[5]; AAK1, accession Q2M218-1, experiment wp045, direction of change down",−1.24
CC(C)S(=O)(=O)c1ccccc1Nc1nc(Nc2ccc(N3CCN(CCOCCNC(=O)CNc4ccc5c(c4)C(=O)N(C4CCC(=O)NC4=O)C5=O)CC3)cc2)ncc1Cl (centres unmarked) [SK.3.93],logFC AURKA (O14965),[1]; experiment wp016,−1.823
same,logFC CDK4 (P11802),[2]; experiment wp016,−1.305
same,logFC WEE1 (P30291-1),[3]; experiment wp016,−1.176
same,logFC CDK6,[4]; experiment wp016,−0.8585
same,logFC of CDK6 (Q00534),[4]; Experiment wp016,−0.8585
same,logFC AAK1,"[5]; AAK1 (Q2M218-1), experiment wp016, down",−1.588
same,logFC AAK1,"[5]; AAK1, accession Q2M218-1, experiment wp016, direction of change down",−1.588
C[C@@H]1C[C@@H](O)c2ncnc(N3CCN(C(=O)[C@H](CNCCCCCCCCCCc4cccc5c4C(=O)N(C4CCC(=O)NC4=O)C5=O)c4ccc(Cl)cc4)CC3)c21 (some centres unmarked) [INY.03.041.01],logFC CDK4 (P11802),[2]; experiment wp118,−0.4019
O=C(COc1cccc2c1C(=O)N(C1CCC(=O)NC1=O)C2=O)NCCCCCCCN1CCc2cc(Nc3ncc(C4CC4)c(NCCCNC(=O)C4CCC4)n3)ccc2C1 (centres unmarked) [BSJ.04.178],logFC AURKA (O14965),[1]; experiment wp134,−0.4772
same,logFC of WEE1,[3]; experiment wp134,−0.5688
same,logFC WEE1 (P30291-1),[3]; experiment wp134,−0.5688
same,logFC AAK1,"[5]; AAK1 (Q2M218-1), experiment wp134, down",−3.342
same,logFC AAK1,"[5]; AAK1, accession Q2M218-1, experiment wp134, direction of change down",−3.342
same,logFC of SIK2,[6]; experiment wp134,−1.351
same,logFC SIK2 (Q9H0K1),[6]; experiment wp134,−1.351
O=C1CCC(N2C(=O)c3cccc(NCCCCCCCCN4CCC(NC(=O)c5[nH]ncc5NC(=O)c5c(Cl)cccc5Cl)CC4)c3C2=O)C(=O)N1 (centres unmarked) [MFH.5.126.1],logFC AURKA (O14965),[1]; experiment wp076,−0.9474
same,logFC CDK4 (P11802),[2]; experiment wp076,−0.608
same,logFC of WEE1,[3]; [7],−0.9048
same,logFC WEE1 (P30291-1),[3]; experiment wp076,−0.9048
Nc1ncnc2c1c(-c1ccc(Oc3ccccc3)cc1)nn2[C@H]1CC[C@H](N2CCN(CCOCCNC(=O)CNc3cccc4c3C(=O)N(C3CCC(=O)NC3=O)C4=O)CC2)CC1 (some centres unmarked) [SB1.G.181],logFC AURKA (O14965),[1]; experiment wp071,−0.3684
Cc1cc(Nc2ncc(Br)c(Nc3cccc(F)c3C(N)=O)n2)ccc1S(=O)(=O)NCCOCCOCCOCCOCCNc1cccc2c1C(=O)N(C1CCC(=O)NC1=O)C2=O (centres unmarked) [TMX.02.174],logFC AURKA (O14965),[1]; experiment wp146,−2.865
same,logFC of WEE1,[3]; experiment wp146,−1.142
same,logFC WEE1 (P30291-1),[3]; experiment wp146,−1.142
same,logFC AAK1,[5]; [8],−1.62
same,logFC AAK1,[5]; [9],−1.62
Cc1cnc(Nc2ccc(N3CCN(CCCCCCC(=O)N[C@H](C(=O)N4C[C@H](O)C[C@H]4C(=O)N[C@@H](C)c4ccc(-c5scnc5C)cc4)C(C)(C)C)CC3)cc2)nc1Nc1cccc(S(=O)(=O)NC(C)(C)C)c1 [JWG.123],logFC of WEE1,[3]; experiment wp195,−1.368
same,logFC of WEE1 (P30291-1),"[3]; experiment wp195, direction of change down",−1.368
same,logFC AAK1,[5]; [10],−1.091
same,logFC AAK1,[5]; [11],−1.091
same,logFC of SIK2,[6]; experiment wp195,−0.6143
same,logFC SIK2 (Q9H0K1),[6]; experiment wp195,−0.6143
NC(=O)c1c(F)cccc1Nc1nc(Nc2ccc(S(=O)(=O)NCCOCCOCCOCCOCCNc3cccc4c3C(=O)N(C3CCC(=O)NC3=O)C4=O)cc2)ncc1Br (centres unmarked) [TMX.02.138],logFC AURKA (O14965),[1]; experiment wp146,−2.933
same,logFC AAK1,[5]; [8],−1.129
same,logFC AAK1,[5]; [9],−1.129
Cn1c(=O)c(-c2c(Cl)cccc2Cl)cc2cnc(Nc3ccc(OCCNC(=O)CCCCCCNC(=O)COc4cccc5c4C(=O)N(C4CCC(=O)NC4=O)C5=O)cc3)nc21 (centres unmarked) [SB1.G.192.1],logFC AURKA (O14965),[1]; experiment wp071,−0.8111
same,logFC AURKA (O14965),[1]; experiment wp081,−0.7299
same,logFC AURKA (O14965),[1]; experiment wp131,−0.6267
same,logFC of WEE1,[3]; experiment wp081,−1.764
same,logFC of WEE1,[3]; experiment wp131,−1.647
same,logFC WEE1 (P30291-1),[3]; experiment wp071,−2.367
same,logFC WEE1 (P30291-1),[3]; experiment wp081,−1.764
same,logFC WEE1 (P30291-1),[3]; experiment wp131,−1.647
same,logFC of SIK2,[6]; experiment wp071,−1.036
same,logFC of SIK2,[6]; experiment wp081,−1.196
same,logFC of SIK2,[6]; experiment wp131,−0.9342
same,logFC SIK2,[6]; experiment wp071,−1.036
same,logFC SIK2 (Q9H0K1),[6]; experiment wp081,−1.196
same,logFC SIK2 (Q9H0K1),[6]; experiment wp131,−0.9342
"Cc1ncsc1-c1ccc([C@H](C)NC(=O)[C@@H]2C[C@@H](O)CN2C(=O)[C@@H](NC(=O)CCCCCN2CCN(c3ccc(Nc4ncc5scc(-c6cccc(NS(C)(=O)=O)c6)c5n4)cc3)CC2)C(C)(C)C)cc1 [RSS0680, (2S,4R)-1-((S)-3,3-Dimethyl-2-(6-(4-(4-((7-(3-(methylsulfonamido)phenyl)thieno[3,2-d]pyrimidin-2-yl)amino)phenyl)piperazin-1-yl)hexanamido)butanoyl)-4-hydroxy-N—((S)-1-(4-(4-methylthiazol-5yl)phenyl)ethyl)pyrrolidine-2-carboxamide]",logFC CDK4 (P11802),[2]; experiment wp080,−1.724
same,logFC CDK4 (P11802),[2]; experiment wp117,−1.679
same,logFC of WEE1,[3]; experiment wp080,−2.359
same,logFC of WEE1,[3]; experiment wp117,−1.85
same,logFC WEE1 (P30291-1),[3]; experiment wp080,−2.359
same,logFC WEE1 (P30291-1),[3]; experiment wp117,−1.85
same,logFC CDK6,[4]; experiment wp080,−2.17
same,logFC CDK6,[4]; experiment wp117,−2.169
same,logFC of CDK6 (Q00534),[4]; Experiment wp080,−2.17
same,logFC of CDK6 (Q00534),[4]; Experiment wp117,−2.169
same,logFC AAK1,"[5]; AAK1 (Q2M218-1), experiment wp080, down",−1.392
same,logFC AAK1,"[5]; AAK1 (Q2M218-1), experiment wp117, down",−1.05
same,logFC AAK1,"[5]; AAK1, accession Q2M218-1, experiment wp080, direction of change down",−1.392
same,logFC AAK1,"[5]; AAK1, accession Q2M218-1, experiment wp117, direction of change down",−1.05
same,logFC of SIK2,[6]; experiment wp080,−0.6986
same,logFC of SIK2,[6]; experiment wp117,−0.7184
same,logFC SIK2,[6]; experiment wp080,−0.6986
same,logFC SIK2 (Q9H0K1),[6]; experiment wp117,−0.7184
Cc1ncsc1-c1ccc([C@H](C)NC(=O)[C@@H]2C[C@@H](O)CN2C(=O)[C@@H](NC(=O)CCCCCN2CCc3cc(Nc4ncc(C5CC5)c(NCCCNC(=O)C5CCC5)n4)ccc3C2)C(C)(C)C)cc1 [BSJ.05.026],logFC WEE1 (P30291-1),[3]; Experiment wp195,−0.8876
same,logFC of WEE1,[3]; experiment wp196,−0.8876
same,logFC AAK1,[5]; [10],−3.073
same,logFC AAK1,[5]; [11],−3.073
same,logFC of SIK2,[6]; experiment wp195,−0.9472
same,logFC SIK2 (Q9H0K1),[6]; experiment wp195,−0.9472
CCc1cnn2c(N(Cc3ccc(N)nc3)C(=O)CCOCCOCCOCCNC(=O)CNc3cccc4c3C(=O)N(C3CCC(=O)NC3=O)C4=O)cc(N3CCCC[C@H]3CCO)nc12 (some centres unmarked) [MFH.5.115.2],logFC AURKA (O14965),[1]; experiment wp076,−0.5912
same,logFC CDK4 (P11802),[2]; experiment wp076,−0.7246
same,logFC of WEE1,[3]; [7],−0.7664
same,logFC WEE1 (P30291-1),[3]; experiment wp076,−0.7664
